Test results as given in US20260028390A1, “ALPHA1-ANTITRYPSIN FOR USE IN THE TREATMENT OF DISEASES OR DISORDERS OF THE NERVOUS SYSTEM SUCH AS CHRONIC INFLAMMATORY DEMYELINATING POLYNEUROPATHY” (Ageronix SA, priority 2022, published 2026).
Several values for one entry are separate records, joined by “and”; a condition that tells them apart may be missing. Equal values may be shown once.

Experiments:
[1] = test system: CMT1A mice B6.Cg-Tg(PMP22)C3Fbas/J; assay: Sciatic nerve electrophysiology (CMAP, NCV), CMT mice treated with AAT 180 mg/kg/day sc; format: in vivo, mouse
Procedure: CMT MOUSE MODEL: Non-humanized CMT1A mice B6.Cg-Tg(PMP22)C3Fbas/J (three copies of the PMP22 gene), three groups of 8 animals each.
DOSAGE: 180 mg/kg/day non-clinical grade AAT (Sigma)
ADMINISTRATION: Subcutaneous (SC) (bi-daily injection of 90 mg/kg)
(§1) Animals were received at 6 weeks of age and housed under controlled conditions for the duration of the study. The study comprised two groups of 8 transgenic mice (CMT mice) each and one group of 8 age matched wild type (WT) C57B16 mice, serving as positive control. Animals were assigned to the following subcutaneous treatments twice daily at 7:00 AM and 7:00 PM for 2 weeks, starting from 8 weeks and up to 10 weeks of age: • Wild-type (WT, no disease) mice receiving vehicle, 0.9% NaCl (positive control) • CMT1A mice receiving vehicle, 0.9% NaCl (negative control) • CMT1A mice receiving AAT at 90 mg/kg per injection (daily dose 180 mg/kg)
(§2) The efficacy parameters included: • neuromuscular performance (rotarod latency to fall and grip strength test), • sciatic nerve electrophysiology (CMAP amplitude and NCV) • cytokine (IL-6 and TNFα), as well as NfL analysis • sciatic nerve histology (number of axons and axonal diameter),
On the first day of treatment (Day 1), the neuromuscular and performance of animals was tested with a rotarod test and a grip strength test, as well as sciatic nerve electrophysiology test, which measured the compound muscle action potential (CMAP) and the nerve conduction velocity (NCV). After the last treatment on Day 15, these tests were repeated. Animals were then left untreated for 2 additional weeks to evaluate the duration of the treatment effect. Following the 2-week treatment-free period until 12 weeks of age (Day 30), the behavioural and electrophysiological tests were repeated.

[2] = test system: CIDP mice; assay: Von Frey test (paw withdrawal threshold), CIDP mouse model; format: in vivo; details: for Von Frey, paw withdrawal threshold (Mean ± SD): CIDP mice; for von Frey test, Paw withdrawal threshold, group MEAN: group mean of 4 animals; for von Frey test, Paw withdrawal threshold, Mean/animal: per animal; for von Frey test, Paw withdrawal threshold, Mean/animal / von Frey test, Paw withdrawal threshold, set 1 / von Frey test, Paw withdrawal threshold, set 2 / von Frey test, Paw withdrawal threshold, set 3: listed as hAAT; for von Frey test, Paw withdrawal threshold, set 1 / von Frey test, Paw withdrawal threshold, set 2 / von Frey test, Paw withdrawal threshold, set 3: raw data per animal
Procedure: (§3) C57BL/6 mice were received at 8 weeks of age and housed under controlled conditions for the duration of the study. Three groups of 4 animals each were assigned to the following subcutaneous treatments twice daily at 7:00 AM and 7:00 PM for 2 weeks, from 20 to 35 days after the start of disease induction: • Wild type (WT) mice receiving the vehicle, 0.9% NaCl (positive control) • CIDP mice receiving the vehicle, 0.9% NaCl (negative control) • CIDP mice receiving human AAT (AAT), 50 mg/kg per injection
Disease induction consisted in subcutaneous injection of mouse sciatic nerve homogenate in phosphate buffer saline (PBS)+Freund's adjuvant mixture at 10 mL/kg. For each treatment, 3 different body sites injections were performed. Control mice also received three subcutaneous injections of PBS+Freund's adjuvant at the same 3 different body sites.
On the first (Day 20) and last (Day 35) day of treatment, the neuromuscular and performance of animals was tested with a rotarod test, grip test and a sensory test using the Von Frey filament test, as well as sciatic nerve electrophysiology test. After the last treatment at Day 35, these tests were repeated, animals were sacrificed and the left sciatic nerve was sampled for histological evaluation of the number and size of […].

[3] = test system: plasma TNFα; assay: Plasma TNFα quantification, CIDP mouse model; format: in vivo; details: for Plasma TNFα concentration (Mean ± SD): CIDP mice; for TNFα conc: per animal, listed as hAAT
Procedure: as §3
On the day preceding disease induction (Day 1), on the first (Day 20) and on the last (Day 35) treatment day, animals were subjected to blood samplings for the determination of neurofilament light chain (NfL), tumour necrosing factor alpha (TNFα) and TMPRSS5 levels, as described in FIG. 20. In addition, plasma levels of AAT were evaluated on the last treatment day.

[4] = test system: CMT1A mice B6.Cg-Tg(PMP22)C3Fbas/J; assay: Grip strength, CMT mice treated with AAT 180 mg/kg/day sc; format: in vivo, mouse; details: 8 weeks old, CMT + hAAT 180 mg/kg/day SC, individual animal
[5] = test system: plasma TNFα; assay: Plasma TNFα, CMT mice treated with AAT 180 mg/kg/day sc; format: in vivo, mouse
Excerpt: as §1, §2
As supportive information for the mode of action of AAT in CMT, plasma concentration of interleukin 6 (IL-6) and TNFα were measured at Day 1 (8 weeks), Day 15 (10 weeks) and Day 30 (12 weeks). At the same timepoints, plasma levels of the biomarker of nerve damage, NfL were determined.

[6] = test system: CMT1A mice B6.Cg-Tg(PMP22)C3Fbas/J; assay: Sciatic nerve electrophysiology (CMAP, NCV), CMT mice treated with AAT 180 mg/kg/day sc; format: in vivo, mouse; details: 6 weeks old, CMT + hAAT
[7] = 8 weeks old (baseline, Day 1), CMT1A + AAT
[8] = 8 weeks old, CMT + hAAT 180 mg/kg/day SC, 8 mice
[9] = 8 weeks old, CMT + hAAT 180 mg/kg/day SC, individual mouse
[10] = 10 weeks old (Day 15, after 2 weeks AAT 90 mg/kg sc twice daily)
[11] = 12 weeks of age, after 2-week treatment-free period
[12] = 12 weeks old (Day 30, after 2-week treatment-free period)
[13] = CMT mice, AAT 90 mg/kg sc twice a day, 8 to 10 weeks of age, end of treatment
[14] = Day 20, before compound treatment

alpha1-antitrypsin (AAT) protein
Conduction velocity, group MEAN ([1]; 6 weeks old, CMT + hAAT, 8 mice): 26.266 m/s
Compound muscle action potential (Mean ± SD) [1, 7]: 3.76 ± 0.50 mV
Nerve conduction velocity (Mean ± SD) [1, 7]: 15.96 ± 1.54 m/s
Amplitude, group MEAN [1, 8]: 5.492 mV
Conduction velocity, group MEAN [1, 8]: 16.946 m/s
Amplitude [1, 9]: 4.874 mV and 5.376 mV and 5.322 mV and 9.084 mV and 6.115 mV and 3.753 mV and 5.277 mV and 4.139 mV
Conduction velocity [1, 9]: 18.707 m/s and 16.462 m/s and 10.029 m/s and 19.200 m/s and 17.615 m/s and 9.648 m/s and 25.446 m/s and 18.460 m/s
T1 distal [1, 9]: 3.916 ms and 3.259 ms and 3.449 ms and 4.291 ms and 3.773 ms and 8.247 ms and 7.467 ms and 11.449 ms
T2 proximal [1, 9]: 4.718 ms and 4.170 ms and 4.945 ms and 5.072 ms and 4.624 ms and 9.802 ms and 8.057 ms and 12.262 ms
Compound muscle action potential (Mean ± SD) [1, 10]: 5.41 ± 0.71 mV
Nerve conduction velocity (Mean ± SD) [1, 10]: 21.47 ± 6.07 m/s
NCV vs untreated group [1, 11]: non-significantly different
CMAP vs untreated CMT animals ([1]; 12 weeks of age, after 2-week treatment-free period, P<0.05): significantly higher
Compound muscle action potential (Mean ± SD) [1, 12]: 2.94 ± 0.65 mV
Nerve conduction velocity (Mean ± SD) [1, 12]: 10.50 ± 1.73 m/s
compound muscle action potential amplitude vs CMT mice not treated with AAT [1, 13]: significant increase
nerve conduction velocity vs CMT mice not treated with AAT [1, 13]: significant increase
threshold of paw withdrawal compared to the vehicle treated group ([2]; CIDP + AAT 50 mg/kg sc twice daily, Day 35): increased
Von Frey, paw withdrawal threshold (Mean ± SD) ([2]; Day 20 (baseline)): 3.16 ± 0.95 grams
Von Frey, paw withdrawal threshold (Mean ± SD) ([2]; Day 35, AAT 50 mg/kg sc twice daily): 5.71 ± 0.41 grams
von Frey test, Paw withdrawal threshold, group MEAN ([2]; Baseline (Day 20)): 3.16 grams
von Frey test, Paw withdrawal threshold, group MEAN ([2]; Day 35): 5.80 grams
von Frey test, Paw withdrawal threshold, Mean/animal ([2]; Baseline (Day 20)): 4.30 grams and 2.10 grams and 2.74 grams and 3.48 grams
von Frey test, Paw withdrawal threshold, Mean/animal ([2]; Day 35): 5.60 grams and 5.24 grams and 6.21 grams and 6.14 grams
von Frey test, Paw withdrawal threshold, set 1 ([2]; Baseline (Day 20)): 4.6 grams and 2.1 grams and 3.3 grams and 4.5 grams
von Frey test, Paw withdrawal threshold, set 2 ([2]; Baseline (Day 20)): 2.4 grams and 1.8 grams and 2.1 grams and 2.2 grams
von Frey test, Paw withdrawal threshold, set 3 ([2]; Baseline (Day 20)): 6.0 grams and 2.4 grams and 2.8 grams and 3.8 grams
von Frey test, Paw withdrawal threshold, set 1 ([2]; Day 35): 5.3 grams and 5.9 grams and 7.7 grams and 5.1 grams
von Frey test, Paw withdrawal threshold, set 2 ([2]; Day 35): 5.1 grams and 3.7 grams and 5.3 grams and 7.0 grams
von Frey test, Paw withdrawal threshold, set 3 ([2]; Day 35): 6.4 grams and 6.1 grams and 5.7 grams and 6.3 grams
plasma TNFα concentration compared to the CIDP+vehicle treated group ([3]; CIDP + AAT, day 35): significant decrease
Plasma TNFα concentration (Mean ± SD) ([3]; Day 1): 138.46 ± 18.58 pg/mL
Plasma TNFα concentration (Mean ± SD) ([3]; Day 20): 1397.62 ± 330.96 pg/mL
Plasma TNFα concentration (Mean ± SD) ([3]; Day 35): 1046.73 ± 144.47 pg/mL
Plasma TNFα, Mean Diff., CIDP + vehicle vs. CIDP + hAAT (Bonferroni's multiple comparisons test) [3, 14]: −187.9
Plasma TNFα, Significant?, CIDP + vehicle vs. CIDP + hAAT (Bonferroni's multiple comparisons test) [3, 14]: No
Plasma TNFα, Mean Diff., CIDP + vehicle vs. CIDP + hAAT (Bonferroni's multiple comparisons test) ([3]; Day 35): 385.1
TNFα conc, group MEAN ([3]; Day 1): 138.46 pg/mL
TNFα conc, group MEAN ([3]; Day 20): 1397.62 pg/mL
TNFα conc, group MEAN ([3]; Day 35): 1046.73 pg/mL
TNFα conc ([3]; Day 1 (before model induction)): 125.451 pg/mL and 165.501 pg/mL and 135.780 pg/mL and 127.127 pg/mL
TNFα conc ([3]; Day 20 (before compound treatment)): 1705.849 pg/mL and 1029.281 pg/mL and 1208.445 pg/mL and 1646.907 pg/mL
TNFα conc ([3]; Day 35): 910.997 pg/mL and 1161.216 pg/mL and 933.130 pg/mL and 1181.571 pg/mL
Grip strength, Mean/animal [4]: 4.83 NEWTONS and 2.73 NEWTONS and 2.97 NEWTONS and 4.09 NEWTONS and 5.05 NEWTONS and 7.59 NEWTONS and 5.53 NEWTONS and 5.68 NEWTONS
Grip strength, set 1 [4]: 3.97 NEWTONS and 2.15 NEWTONS and 3.47 NEWTONS and 4.13 NEWTONS and 4.85 NEWTONS and 8.17 NEWTONS and 6.20 NEWTONS and 4.87 NEWTONS
Grip strength, set 2 [4]: 5.37 NEWTONS and 4.34 NEWTONS and 2.22 NEWTONS and 4.58 NEWTONS and 3.84 NEWTONS and 5.69 NEWTONS and 4.40 NEWTONS and 5.39 NEWTONS
Grip strength, set 3 [4]: 5.14 NEWTONS and 1.69 NEWTONS and 3.21 NEWTONS and 3.55 NEWTONS and 6.47 NEWTONS and 8.92 NEWTONS and 5.99 NEWTONS and 6.77 NEWTONS
Plasma TNFα (Mean ± SD) [5, 7]: 9.80 ± 2.25 pg/mL
Plasma TNF-α concentration, group Mean ([5]; 8 weeks old, CMT + hAAT 180 mg/kg/day SC, 8 animals): 6.94 pg/mL
Plasma TNF-α concentration ([5]; 8 weeks old, CMT + hAAT 180 mg/kg/day SC, individual animal): 7.04 pg/mL and 7.89 pg/mL and 7.91 pg/mL and 5.44 pg/mL and 7.90 pg/mL and 5.34 pg/mL and 8.02 pg/mL and 5.95 pg/mL
Plasma TNFα (Mean ± SD) [5, 10]: 6.55 ± 2.11 pg/mL
positive effect on TNFα plasma levels [5, 11]: remained significant
Plasma TNFα (Mean ± SD) [5, 12]: 11.61 ± 1.00 pg/mL
plasma levels of TNFα ([5]; CMT mice, AAT 90 mg/kg sc twice a day, P<0.0001): reduced
Amplitude, group MEAN ([6]; 8 mice): 6.628 mV
Amplitude ([6]; individual mouse): 7.828 mV and 3.009 mV and 5.770 mV and 5.919 mV and 7.925 mV and 8.742 mV and 6.803 mV and 7.028 mV
Conduction velocity ([6]; individual mouse): 31.949 m/s and 34.989 m/s and 30.328 m/s and 19.190 m/s and 18.114 m/s and 20.530 m/s and 26.247 m/s and 28.783 m/s
T1 distal ([6]; individual mouse): 7.416 ms and 5.701 ms and 12.428 ms and 5.913 ms and 6.041 ms and 3.664 ms and 4.204 ms and 3.385 ms
T2 proximal ([6]; individual mouse): 7.885 ms and 6.130 ms and 12.922 ms and 6.694 ms and 6.869 ms and 4.395 ms and 4.775 ms and 3.906 ms
